Assays:
recombinant SvelOBP15 [1] = experiment: Fluorescence competitive binding assay with 1-NPN as fluorescent reporter; parameters: species or system Sympiezomias velatus; details: for IC50 / Ki: 1-NPN 2 μmol/L; for IC50: competitor 2 to 20 μmol/L, concentration halving the fluorescence of 1-NPN; for binding to SvelOBP15 (in words): competitive binding, competitor up to 20 μmol/L; for Ki: calculated from IC50, mean ± SE, read-out: Ki (dissociation constant)
Procedure: The whole ORF of SvelOBP15 was successfully validated by RT-PCR and Sanger sequencing and then synthesized (without the signal peptide-encoding region) by Sangon Biotech (Shanghai, China). It was first cloned into the pGEM-T cloning vector (Promega, Madison, United States) and then subcloned into the expression vector pET-30a(+) (Novagen, Darmstadt, Germany). Recombinant SvelOBP15 was expressed in Escherichia coli Transetta (DE3) following induction with 0.5 mM isopropyl-b-D-thiogalactopyranoside (IPTG) after the culture reached an OD600 of 0.4–0.6. Incubation was continued at 37°C with shaking at 220 rpm for an additional 6 h. […] Denaturation and renaturation were performed following previously reported methods ([Liu et al., 2012]). The protein was purified using a HisTrap HP prepacked column (GE Healthcare, Pittsburgh, United States) according to the manufacturer’s instructions, and recombinant enterokinase (rEK) (GenScript Biology Company, Nanjing, China) was used to remove the His-tag. After running the digested protein back through the HisTrap HP prepacked column, the tag-free protein was obtained in the flow-through fraction. Proteins were visualized at all stages of purification by SDS-PAGE.
(§1) Fluorescence competitive binding assays were performed as reported previously ([Liu et al., 2015]). This assay was conducted on a Hitachi F-7000 fluorescence spectrophotometer with a 1-cm light path quartz cuvette and 10-nm slits for both excitation and emission. The excitation wavelength was 337 nm, and the emission spectrum was recorded between 390 and 460 nm. First, to determine the binding affinities of N-phenyl-1-naphthylamine (1-NPN) to OBP15, the fluorescence intensity values at maximum fluorescence emissions were plotted against the free ligand concentration by titrating increasing concentrations of 1-NPN. The binding curves were linearized using Scatchard plots. Next, competitive binding assays of OBP15 to 33 chemicals (Supplementary Table S2) of different structural characteristics were carried out using 1-NPN as the fluorescent reporter at a concentration of 2 μmol/L, whereas the concentration of each competitor varied from 2 to 20 μmol/L. These chemicals included the volatile components of host plants such as peanut, elm, maize, cotton, etc. ([Hammack, 2001]; [Cardoza et al., 2002]; [Ngumbi et al., 2009]; [Cheng et al., 2010]) and aggregation pheromone components of curculionids ([Gries et al., 1993]; [Hallett et al., 1993]; [Eller et al., 1994]; [Szendrei et al., 2011]). Chemicals were purchased from Sigma-Aldrich (St. Louis, United States) (purity >95% or 90%). Based on the assumption that the activity of proteins was 100% with a saturation stoichiometry of 1:1 (protein: ligand), the dissociation constants (Ki) of the competitors were calculated from the IC50 values (the concentrations of the ligands halving the fluorescence of 1-NPN) using the following equation:
Ki = [IC50]/(1 + [1-NPN]/K1-NPN) ([Ban et al., 2003]).Where [1-NPN] is the free concentration of 1-NPN and K1-NPN is the dissociation constant of the complex protein/1-NPN.
Ki values of various compounds (mean ± SE) were subjected to one-way ANOVA followed by Tukey post hoc test for mean comparison using SPSS Statistics 20.0 (SPSS Inc., Chicago, United States).

recombinant SvelOBP15 [2] = experiment: 1-NPN titration (binding curve, Scatchard plot); parameters: species or system Sympiezomias velatus; details: titration with increasing 1-NPN, read-out: dissociation constant of 1-NPN
Procedure: as §1, with “Based on the assumption that the activity of proteins was 100% with a saturation stoichiometry of 1:1 (protein: ligand), the dissociation constants (Ki) of the competitors were calculated from the IC50 values (the concentrations of the ligands halving the fluorescence of 1-NPN) using the following equation:” left out

AquaOBP4 = system: AquaOBP4; parameters: method as in Wang et al., 2017; details: ref Wang et al., 2017; cited from earlier work
SzeaOBP28 = system: SzeaOBP28; parameters: method as in Zhang Y. et al., 2019; details: ref Zhang Y. et al., 2019; cited from earlier work

| Molecule | IC50 (recombinant SvelOBP15 [1]) | also measured |
| --- | --- | --- |
| CCCCCCCCCCCC [Dodecane] | > 20 µM | binding to SvelOBP15 (in words) (recombinant SvelOBP15 [1]): cannot be bound |
| O=C1CCCC1C1CCCC1 (stereo not shown) [(1,1`-Bicyclopentyl)-2-one] | > 20 µM |  |
| C=C/C(C)=C/C/C=C(\C)CCC=C(C)C [α-Farnesene] | > 20 µM |  |
| (+)-α-Pinene | > 20 µM |  |
| C=C(C)[C@H]1CC=C(C)CC1 [Limonene] | 14.7 ± 0.53 µM | Ki (recombinant SvelOBP15 [1]): 11.7 ± 0.47 µM |
| c1ccc(Nc2cccc3ccccc23)cc1 [1-NPN, N-phenyl-1-naphthylamine] |  | Kd (recombinant SvelOBP15 [2]): 4.68 ± 0.16 µM |
| C=C1CC/C=C(\C)CC[C@@H]2[C@@H]1CC2(C)C [(-)-trans-Caryophyllene] | > 20 µM |  |
| CC/C=C\CCO [Z-3-hexen-1-ol] | > 20 µM |  |
| CC(C)COC(=O)CCCCC(=O)OCC(C)C [Diisobutyl adipate] | > 20 µM |  |
| CCCCC(=O)C(C)CCC (stereo not shown) [4-Methyl-5-nonanone] | > 20 µM |  |
| CC(C)COC(=O)c1ccccc1C(=O)OCC(C)C [Diisobutyl phthalate] | 15.8 ± 0.42 µM | binding to AquaOBP4 (in words) (AquaOBP4): weakly bound; Ki (recombinant SvelOBP15 [1]): 12.6 ± 0.34 µM |
| CC(C)=CCC/C(C)=C/C(=O)O [Geranic acid] | > 20 µM |  |
| CC/C=C\CCOC(C)=O [cis-3-Hexenyl acetate] | > 20 µM |  |
| CCCCCCCCCCCCCCC [Pentadecane] | > 20 µM | binding to SvelOBP15 (in words) (recombinant SvelOBP15 [1]): cannot be bound |
| O=Cc1ccccc1 [Benzalehyde] | > 20 µM |  |
| COCCOC(=O)c1ccccc1C(=O)OCCOC [bis (2-methoxyethyl) phthalate] |  | binding to SzeaOBP28 (in words) (SzeaOBP28): exhibited a binding affinity |
| Cc1cccc2ccccc12 [1-Methylnaphthalene] | > 20 µM |  |
| (+)-β-Pinene | > 20 µM |  |

| Molecule | IC50 (recombinant SvelOBP15 [1]) | also measured |
| --- | --- | --- |
| C=CC(O)CCCCC (stereo not shown) [1-Octen-3-ol] | > 20 µM |  |
| CC(C)=CCC/C(C)=C/CO [(E)-3,7-Dimethyl-2,6-octadien-1-ol] | > 20 µM |  |
| CCCCCCCCC=O [Nonanal] | > 20 µM |  |
| C=CC(C)(O)CCC=C(C)CCC=C(C)C (mixture of isomers) [Nerolidol] |  | Ki (recombinant SvelOBP15 [1]): 12.9 ± 0.43 µM |
| CCC/C=C/COC(C)=O [trans-2-Hexenyl acetate] | > 20 µM |  |
| CCCCCCCCCCCCCCCC [n-Hexadecane] | > 20 µM | binding to SvelOBP15 (in words) (recombinant SvelOBP15 [1]): cannot be bound |
| CC(C)=CCC/C(C)=C/CC/C(C)=C/CO [(E,E)-Farnesol] | 9.26 ± 0.43 µM | Ki (recombinant SvelOBP15 [1]): 7.36 ± 0.36 µM |
| C=C/C(C)=C/CC=C(C)C [β-Ocimene] | > 20 µM |  |
| CCc1ccc(C(C)=O)cc1 [4-Ethylacetophenone] | > 20 µM |  |
| CCCCC(O)C(C)CC (stereo not shown) [3-Methyl-4-octanol] | > 20 µM |  |
| CCCCCCCCCCCCCCCC(=O)O [Palmitic acid] | > 20 µM |  |
| CC(=O)c1ccc(C)c(C)c1 [3',4'-Dimethylacetophenone] | > 20 µM |  |
| CCCCC(O)C(C)CCC (stereo not shown) [4-Methyl-5-nonanol] | > 20 µM |  |
| COC(=O)c1ccccc1O [Methyl salicylate] | > 20 µM |  |
| C=CC(C)(O)CCC=C(C)C (stereo not shown) [Linalool] | > 20 µM |  |
| CCCCCCCCCCCCCC [Tetradecane] | > 20 µM | binding to SvelOBP15 (in words) (recombinant SvelOBP15 [1]): cannot be bound |
| CCC/C=C/C=O [trans-2-Hexenyl aldehyde] | > 20 µM |  |
